BindingDB's records for doi:10.1016/s0960-894x(00)00654-5 (Roche Discover Welwyn, 2001)
*1 amine or outer side, *2 acyl side, *3 side chain or, on linkers, in order; H or OH if unused. Where a SMILES comes first, the peptide text is derived from it. [ ]: non-standard residue; d: D form. The star is where a group is joined. Phe(2-Me) = Cc1ccccc1C[C@H](N)C(=O)O; NleCONH2 = CCCC[C@H](N*)C(=O)C(N)=O; Suc = O=C(CCC(=O)[*:2])[*:1]; Tle = CC(C)(C)[C@H](N)C(=O)O

Assay: Compound was tested for inhibition of Serine protease chymotrypsin

IC50: 300 nM
SMILES: CCCC[C@H](NC(=O)[C@H](CC(C)C)NC(=O)[C@@H](NC(=O)[C@H](Cc1ccccc1C)NC(=O)[C@H](CCC(=O)O)NC(=O)[C@H](CC(=O)O)NC(=O)CCC(=O)O)C(C)(C)C)C(=O)C(N)=O [(S)-4-((S)-1-{(S)-1-[(S)-1-((R)-1-Aminooxalyl-pentylcarbamoyl)-3-methyl-butylcarbamoyl]-2,2-dimethyl-propylcarbamoyl}-2-o-tolyl-ethylcarbamoyl)-4-[(S)-3-carboxy-2-(3-carboxy-propionylamino)-propionylamino]-butyric acid] (Suc-DE[Phe(2-Me)][Tle]L-NleCONH2)
